Results published in patent US20240217973A1, “IMIDAZOPYRIDINE COMPOUNDS AND USE THEREOF” (MEDSHINE DISCOVERY INC., priority 2021, published 2024).

Key:
[1] = molecular target: BTK kinase (Homo sapiens (Human), UniProt Q06187); experiment: BTK kinase experiment (ADP-Glo); format: biochemical; settings: 2 μM ATP, PolyE4Y1 substrate, 30 minutes pre-incubation
Experimental: BTK kinase, PolyE4Y1 substrate and Kinase assay buffer III were purchased from Signalchem; ADP-Glo Kinase Assay was purchased from Promega; Nivo multi-label analyzer (PerkinElmer).
1× buffer preparation (which was prepared and used immediately): Kinase assay buffer III was diluted with ddH2O to 1× assay buffer for later use.
The compound to be tested was diluted with 100% DMSO to 10 μM as the first concentration, and followed by a 5-fold dilution to the 8th concentration using a multi-channel pipette, i.e., it was diluted from 10 μM to 0.128 nM.
Each gradient of the compound to be tested was diluted into a working solution with 5% DMSO using 1× buffer, 1 μL/well was added to the corresponding well, and a double-replicate well experiment was set up. 2 μL of BTK enzyme (4 ng) was add to each well and incubating at 25° C. for 30 minutes. After the incubation was completed, 2 μL of a mixture of substrate and ATP (2 μM ATP, 0.2 μg/μL PolyE4Y1) was added to each well and incubating at 25° C. for 120 minutes. At this point, the final concentration gradient of the compound was diluted from 100 nM to 0.00128 nM. After the reaction was completed, 5 μL of ADP-Glo reagent was added to each well, and the reaction continued at 25° C. for 40 minutes. After the reaction was completed, 10 μL of kinase detection reagent was added to each well. After reacting at 25° C. for 30 minutes, PerkinElmer Nivo multi-label analyzer was used to read the chemiluminescence, and the integration time was 0.5 seconds.
Raw data was converted into inhibition rate using the equation: (Sample−Min)/(Max−Min)*100%. The IC50 value could then be derived by performing a curve fit using four-parameter (which was obtained using the “log(inhibitor) vs. response-Variable slope” mode in GraphPad Prism).

[2] = tested on: HPBMC cells; experiment: HPBMC experiment: CD69 on anti-human IgM stimulated B cells, flow cytometry; format: cell-based; settings: B-cell, B cells isolated from PBMC, 48 hours
Experimental: • 1) Medium: RPMI Medium 1640+1% P/S+10% FBS • 2) MACS buffer: 2% FBS+1 mM EDTA in DPBS • 3) Staining buffer: DPBS+2% FBS • 1.2 Dilution of Compounds and Anti-Human IgM
The initial concentration of the compound to be tested was […], 3-fold dilution, 9 points, and it was added to a 96 well plate after dilution, 50 μL/ well.
The anti-human IgM was diluted according to Table 2 below, and added to the 96 well plate after dilution, 50 μL/well.
• 1) PBMC was removed from a liquid nitrogen tank, then resuscitated and thawed in a 37° C. water bath; • 2) Using a B cell olation kit, B cells were isolated from PBMC according to the instructions, and their viability and number were calculated using a cell counter.
Table 10 Number and viability of PBMC and B cells • 3) The cells were resuspended with 1640 culture medium to a final concentration of 1 M/mL. • 4) The B cells were spread at 0.1 M/ well (100 μL) into a 96-well flat-bottom plate already containing the compound and anti-IgM. • 5) The plate was incubated in a 37° C. CO2 incubator for 48 hours; […]

[3] = Hepatocyte metabolic stability experiment (HMS), H; format: in vitro ADME; settings: human, H hepatocytes, read-out: HMS CLint(liver)
Experimental: (§1) Experimental operations: 198 μL of hepatocyte suspension (0.51×10^6 cells/mL) was added to the preheated incubation plate, and 198 μL of culture medium without hepatocytes was added to T0-MC and T120-MC incubation plates for the culture medium control group, and all incubation plates were pre-incubated for 10 minutes in a 37° C. incubator. Then 2 μL of the working solution of the test and control compounds were added and mixed well, and the incubation plate was immediately put into the plate shaker in the incubator, the rotation speed was adjusted to about 650 rpm, and the timer and the reaction were started. 2 duplicate samples for each compound were prepared at each time point. Incubation conditions: 37° C., saturated humidity, and containing 5% CO2. In the test system, the final concentration of the test compound was 1 μM, the final concentration of the control compound was 3 μM, the final concentration of hepatocytes was 0.5×10^6 cells/mL, and the final concentration of the total organic solvent was 0.96%, of which the final concentration of DMSO was 0.1%. […] All samples were mixed and analyzed by LC-MS/MS method. […]

[4] = Hepatocyte metabolic stability experiment (HMS), R; format: in vitro ADME; settings: rat, R hepatocytes, read-out: HMS CLint(liver)
Experimental: as §1

Sequence of BTK kinase (Q06187 whole entry): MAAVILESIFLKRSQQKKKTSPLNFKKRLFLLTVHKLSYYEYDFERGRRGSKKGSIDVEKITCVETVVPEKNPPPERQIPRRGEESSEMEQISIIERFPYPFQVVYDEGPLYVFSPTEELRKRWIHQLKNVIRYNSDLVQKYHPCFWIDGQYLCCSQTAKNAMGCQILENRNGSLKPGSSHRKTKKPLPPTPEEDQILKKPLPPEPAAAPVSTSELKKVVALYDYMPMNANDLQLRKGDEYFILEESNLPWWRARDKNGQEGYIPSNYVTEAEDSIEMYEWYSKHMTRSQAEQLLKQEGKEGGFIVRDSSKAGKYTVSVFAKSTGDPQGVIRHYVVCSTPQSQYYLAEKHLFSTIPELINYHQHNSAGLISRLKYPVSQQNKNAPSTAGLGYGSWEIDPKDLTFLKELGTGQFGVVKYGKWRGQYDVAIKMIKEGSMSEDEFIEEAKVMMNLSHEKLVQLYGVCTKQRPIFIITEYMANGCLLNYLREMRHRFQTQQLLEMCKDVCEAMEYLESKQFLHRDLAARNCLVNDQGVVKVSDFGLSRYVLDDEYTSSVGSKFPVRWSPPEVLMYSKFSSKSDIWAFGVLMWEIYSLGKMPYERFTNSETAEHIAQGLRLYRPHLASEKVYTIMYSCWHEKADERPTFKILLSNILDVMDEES

SMILES: Nc1nccc2c1n(-c1ccc(Oc3ccccc3)cc1)c(=O)n2[C@@H]1CCCN(C(=O)/C=C/CF)C1 [Compound 002]
- IC50 [1]: 1.65 nM
- IC50 [2]: 3.6 nM
- CLint scaled at 1 μM [3]: 130 mL/min/kg
- CLint scaled at 1 μM [4]: 171 mL/min/kg
